Measured values reported in patent US10813896B2, “Treatment of intrahepatic cholestatic diseases” (CymaBay Therapeutics, Inc., priority 2017, dated 2020).
Where two headings read alike, the source gives them in different places.

Key:
subjects with PBC [1] = experiment: High dose trial in PBC (NCT02609048); assay type: in vivo, human; conditions: for cases of asymptomatic increases in transaminases: reversible on cessation of treatment, no elevation of TBIL; for mean decrease from baseline in ALP: last observation carried forward, at least two weeks of treatment; for reduction of LDL-C: after two weeks of dosing
Text: The trial subjects were adult, male or female, with a diagnosis of PBC by at least two of the following three criteria: (a) a history of alkaline phosphatase (ALP) above the upper limit of normal (ULN) for at least six months, (b) positive anti-mitochondrial antibody titers >1/40 on immunofluorescence or M2 positive by enzyme linked immunosorbent assay or positive PBC-specific antinuclear antibodies, and (c) documented liver biopsy result consistent with PBC, on a stable and recommended dose of UDCA for the past twelve months or UDCA intolerant, and ALP≥1.67×ULN. Exclusion criteria included AST or ALT≥3×ULN, total bilirubin (TBIL)≥2×ULN, autoimmune hepatitis or a history of chronic viral hepatitis, PSC, the current use of fibrates or simvastatin, the use of colchicine, methotrexate, azathioprine, or systemic steroids in the previous two months, the use of an experimental treatment for PBC, and the use of an experimental or unapproved immunosuppressant. The primary study endpoint was decrease in ALP, and the secondary endpoint was the responder rate for subjects achieving ALP<1.67×ULN and total bilirubin within normal limit, and >15% decrease in ALP. Additional secondary endpoints were changes in GGT, TBIL, and 5′-nucleotidase, which are other recognized biochemical markers of cholestasis. […] During the study, three cases of asymptomatic increases in transaminases were observed (two in the 200 mg and one in the 50 mg groups). All three were reversible on cessation of treatment and were not accompanied by elevation of TBIL. Since the study had already shown a clear efficacy signal, the study was discontinued. […] According to the original statistical plan, changes in ALP were calculated using the last observation carried forward. The mean decreases from baseline in ALP for the 50 mg/day and 200 mg/day dose groups were 57% and 62%, respectively, compared with 0.37% for placebo (p<0.0001 for both). The responder rates for the placebo, 50 mg/day, and 200 mg/day groups were 10%, 67% and 100%, respectively, despite the baseline ALP levels being different at 239, 313, and 280 U/L. The p-values comparing the responder rates for the 50 mg/day and 200 mg/day groups with placebo were 0.020 and 0.0004 (Fisher's Exact Test), respectively.

subjects with PBC [2] = experiment: Low-dose trial in PBC (NCT02955602); assay type: in vivo, human
Method: In the main study, running for 12 weeks, subjects were to receive either 2, 5, or 10 mg/day; while in an extension study, running for an additional 40 weeks, subjects in the 2 mg/day group were allowed to continue at the 2 mg/day dose or shift to either 5 or 10 mg/day, subjects in the 5 mg/day group were allowed to continue at the 5 mg/day dose or shift to 10 mg/day, and subjects in the 10 mg/day group were allowed to continue at the 10 mg/day dose or shift to 5 mg/day. At baseline (the mean of the screening values and the value at day 1), the subjects had the following values, with numbers in parentheses denoting standard deviations: The study has now been analyzed through 26 weeks: the 12 weeks of the main study and 14 weeks of the extension study.

[3] = test system: subjects with an intrahepatic cholestatic disease such as PSC; experiment: Trial in PSC; assay type: in vivo, human; conditions: 1, 2, 5, and 10 mg/day oral
Method: Subjects are permitted their usual other medications, including UDCA. […] At each visit, after a 12-hour fast, blood is drawn and urine collected; and a standard metabolic panel, complete blood count, and standard urinalysis are performed. Blood is analyzed for TC, HDL-C, TG, VLDL-C, LDL-C, and apolipoprotein B, for liver function markers such as total and bone-specific ALP, for GGT, and also for total and conjugated bilirubin. The subjects also maintain health diaries, which are reviewed at each visit.

[4] = Preclinical study of elimination; assay type: in vivo
[5] = Exposure study in hepatic impairment (Child-Pugh classes B and C); assay type: in vivo, human; conditions: subjects with significant hepatic impairment
Text: These amounts represent an average daily dose, and not necessarily an amount given at a single dose. Dosing may be as frequent as more than once/day (where the amount, or daily dose, will be divided between the number of administrations per day), but will more typically be once/day (where the amount is given in a single administration). Optionally, particularly in cases of significant hepatic impairment, the dosing may be less frequent than once/day, such as between once/week and every other day, for example once/week, twice/week (especially with the doses at least three days apart), three times/week (especially with the doses at least two days apart), or every other day; so that, as an example, a subject may receive 5 mg twice/week for an amount (daily dose) of 1.4 mg/day.

PPARα = molecular target: T1, PPARα (Homo sapiens, UniProt Q07869); conditions: PPARδ vs PPARα; cited from earlier work
T1 sequence (Q07869 1-468): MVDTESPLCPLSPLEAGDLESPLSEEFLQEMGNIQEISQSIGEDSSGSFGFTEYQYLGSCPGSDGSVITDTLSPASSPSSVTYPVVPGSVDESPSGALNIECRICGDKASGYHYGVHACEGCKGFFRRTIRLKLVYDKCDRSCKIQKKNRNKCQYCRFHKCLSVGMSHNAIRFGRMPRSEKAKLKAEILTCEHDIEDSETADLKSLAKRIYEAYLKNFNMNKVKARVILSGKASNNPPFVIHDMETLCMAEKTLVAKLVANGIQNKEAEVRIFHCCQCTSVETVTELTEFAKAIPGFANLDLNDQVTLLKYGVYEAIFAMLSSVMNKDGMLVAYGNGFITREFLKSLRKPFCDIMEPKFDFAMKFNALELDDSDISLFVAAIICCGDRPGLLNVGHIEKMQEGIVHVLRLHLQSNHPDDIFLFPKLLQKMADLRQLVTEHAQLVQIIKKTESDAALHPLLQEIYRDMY

[6] = test system: subjects with mixed dyslipidemia; conditions: 8 weeks, cited from earlier work
[7] = combined 5 mg/day and 5 to 10 mg/day group, 26 weeks
[8] = through 26 weeks, 2, 5, 10 mg/day
[9] = seladelpar 50 or 100 mg alone or combined with ATV 20 mg, once daily oral, compared to placebo

SMILES: CCO[C@H](COc1ccc(C(F)(F)F)cc1)CSc1ccc(OCC(=O)O)c(C)c1 [seladelpar, [4-({(2R)-2-ethoxy-3-[4-(trifluoromethyl)phenoxy]propyl}sulfanyl)-2-methylphenoxy] acetic acid]
- cases of asymptomatic increases in transaminases (subjects with PBC [1]; 50 mg group): one
- responder rate (ALP<1.67×ULN, total bilirubin within normal limit, >15% decrease in ALP) (subjects with PBC [1]; 50 mg/day): 67%
- mean decrease from baseline in ALP (subjects with PBC [1]; 50 mg/day oral): 57%
- reduction of LDL-C (subjects with PBC [1]; 50 mg/day): 16%
- cases of asymptomatic increases in transaminases (subjects with PBC [1]; 200 mg group): two
- responder rate (ALP<1.67×ULN, total bilirubin within normal limit, >15% decrease in ALP) (subjects with PBC [1]; 200 mg/day): 100%
- mean decrease from baseline in ALP (subjects with PBC [1]; 200 mg/day oral): 62%
- reduction of LDL-C (subjects with PBC [1]; 200 mg/day): 26%
- adverse events of pruritus (subjects with PBC [1]; on treatment, 50 and 200 mg/day): no adverse events of pruritus were reported on treatment
- mean reduction in ALP (subjects with PBC [2]; 2 mg/day, 12 weeks): 21%
- mean reduction in ALT (subjects with PBC [2]; 2 mg/day, 12 weeks): 9%
- mean reduction in ALP (subjects with PBC [2]; 5 mg/day, 12 weeks): 33%
- mean reduction in ALT (subjects with PBC [2]; 5 mg/day, 12 weeks): 28%
- mean reduction in ALP (subjects with PBC [2]; 5 mg/day, 26 weeks): 45%
- mean reduction in ALT (subjects with PBC [2]; 10 mg/day group, 26 weeks): 43%
- subjects with ALP≤1.67×ULN (subjects with PBC [2]; 10 mg/day group, 26 weeks): 79%
- subjects with ALP≤ULN (subjects with PBC [2]; 10 mg/day group, 26 weeks): 32%
- subjects with TBIL≤ULN (subjects with PBC [2]; 10 mg/day group, 26 weeks): 89%
- subjects with a decrease in ALP of ≥15% (subjects with PBC [2]; 10 mg/day group, 26 weeks): 89%
- mean reduction in ALP (subjects with PBC [2]; 10 mg/day, 12 weeks): 45%
- mean reduction in ALT (subjects with PBC [2]; 10 mg/day, 12 weeks): 35%
- mean reduction in ALP (subjects with PBC [2]; 10 mg/day, 26 weeks): 43%
- mean reduction in ALP (subjects with PBC [2]; 5 to 10 mg/day, 26 weeks): 43%
- mean reduction in ALT (subjects with PBC [2]; [7]): 40%
- subjects with ALP≤1.67×ULN (subjects with PBC [2]; [7]): 68%
- subjects with ALP≤ULN (subjects with PBC [2]; [7]): 26%
- subjects with TBIL≤ULN (subjects with PBC [2]; [7]): 95%
- subjects with a decrease in ALP of ≥15% (subjects with PBC [2]; [7]): 95%
- signals for drug-induced pruritus (subjects with PBC [2]; [8]): no signals for drug-induced pruritus
- transaminase safety signals (subjects with PBC [2]; [8]): No transaminase safety signals
- serious adverse events (subjects with PBC [2]; through 26 weeks, all doses, all deemed unrelated to seladelpar): 6
- adverse events leading to seladelpar discontinuation (subjects with PBC [2]; through 26 weeks, all doses, both deemed unrelated to seladelpar): 2
- improvement in disease, manifested by decrease in ALP and GGT [3]: improvement in their disease
- concentration of the drug in bile [4]: concentrated in bile
- main route of elimination [4]: through bile
- area-under-the-curve exposure for seladelpar and two of its three principal metabolites [5]: increase
- maximum plasma concentration of seladelpar [5]: significant increase
- specificity compared with PPARα (PPARα): > 600 fold
- reduction of LDL [6, 9]: 18-43%
- reduction of apolipoprotein B-100 [6, 9]: 20-38%
- reduction of free fatty acids [6, 9]: 16-28%
- reduction of high-sensitivity C-reactive protein (hs-CRP) [6, 9]: 43-72%
- reduction of non-HDL-C [6, 9]: 18-41%
- reduction of triglycerides (TGs) [6, 9]: 26-30%
- rise of HDL-C [6, 9]: 1-12%
- number of patients with the metabolic syndrome and a preponderance of small LDL particles ([6]; seladelpar alone and in combination with ATV): reduced the number of patients with the metabolic syndrome and a preponderance of small LDL particles
- reduction of ALP ([6]; seladelpar groups): 32-43%
- reduction of GGT ([6]; seladelpar groups): 24-28%

SMILES: CC(C)c1c(C(=O)Nc2ccccc2)c(-c2ccccc2)c(-c2ccc(F)cc2)n1CC[C@@H](O)C[C@@H](O)CC(=O)O [ATV, atorvastatin, reference compound]
- increase of GGT ([6]; ATV 20 mg group): 2%
- reduction of ALP ([6]; ATV 20 mg group): 6%
